From the NIST ThermoML archive (doi:10.1021/je9003806)

Assay: excess molar enthalpy (molar enthalpy of mixing); xn = mol fraction of the nth substance listed
Settings: 101.3 kPa, Liquid, Flow calorimetry

CCOC(=O)CC(=O)OCC [diethyl 1,3-propanedioate] + CCCO
excess molar enthalpy [kcal/mol]
Settings	288.2 K	298.2 K	313.2 K	328.2 K
x1 = 0.0499	0.116	0.128	0.138	0.143
x1 = 0.1004	0.207	0.225	0.25	0.266
x1 = 0.1588	–	0.314	0.345	0.371
x1 = 0.209	–	0.376	0.415	0.447
x1 = 0.2513	0.381	0.418	0.458	0.491
x1 = 0.3	0.415	0.456	0.5	0.536
x1 = 0.3491	0.443	0.485	0.533	0.571
x1 = 0.3982	0.462	0.504	0.554	0.593
x1 = 0.451	0.472	0.515	0.565	0.603
x1 = 0.499	0.478	0.52	0.567	0.602
x1 = 0.5503	0.474	0.512	0.559	0.592
x1 = 0.6002	0.462	0.497	0.539	0.567
x1 = 0.6479	0.445	0.476	0.511	0.539
x1 = 0.6986	0.419	0.447	0.47	0.493
x1 = 0.7525	0.376	0.399	0.418	0.434
x1 = 0.797	0.334	0.352	0.361	0.375
x1 = 0.8506	0.269	0.28	0.284	0.294
x1 = 0.9003	0.196	0.197	0.205	0.204
x1 = 0.9527	0.105	0.104	0.103	0.0999

CCOC(=O)CC(=O)OCC [diethyl 1,3-propanedioate] + CC(C)O
excess molar enthalpy [kcal/mol]
Settings	288.2 K	298.2 K	313.2 K	328.2 K
x1 = 0.0511	0.145	0.151	0.158	0.163
x1 = 0.1001	0.244	0.263	0.277	0.292
x1 = 0.1511	0.322	0.35	0.378	0.39
x1 = 0.2012	0.387	0.419	0.449	0.473
x1 = 0.2494	0.431	0.467	0.51	0.531
x1 = 0.3015	0.47	0.51	0.557	0.576
x1 = 0.3507	0.5	0.542	0.586	0.611
x1 = 0.3998	0.516	0.56	0.606	0.63
x1 = 0.4484	0.523	0.569	0.616	0.639
x1 = 0.5003	0.524	0.566	0.611	0.637
x1 = 0.5513	0.519	0.56	0.6	0.62
x1 = 0.6007	0.501	0.539	0.582	0.597
x1 = 0.6478	0.483	0.52	0.555	0.561
x1 = 0.6977	0.449	0.482	0.511	0.516
x1 = 0.7508	0.398	0.431	0.451	0.454
x1 = 0.8007	0.345	0.379	0.391	0.387
x1 = 0.8468	0.286	0.309	0.32	0.302
x1 = 0.9023	0.185	0.219	0.213	0.202
x1 = 0.9537	0.0963	0.111	0.104	0.0935

CCOC(=O)CC(=O)OCC [diethyl 1,3-propanedioate] + CO
excess molar enthalpy [kcal/mol]
Settings	288.2 K	298.2 K	313.2 K	328.2 K
x1 = 0.05	0.066	0.0734	0.081	0.0872
x1 = 0.0996	0.123	0.133	0.146	0.161
x1 = 0.1496	0.167	0.182	0.203	0.221
x1 = 0.2011	0.205	0.224	0.249	0.274
x1 = 0.2515	0.236	0.259	0.286	0.316
x1 = 0.3009	0.261	0.286	0.318	0.349
x1 = 0.3506	0.281	0.307	0.343	0.376
x1 = 0.3988	0.299	0.325	0.361	0.394
x1 = 0.4486	0.31	0.335	0.374	0.407
x1 = 0.4993	0.313	0.341	0.378	0.408
x1 = 0.55	0.315	0.343	0.376	0.409
x1 = 0.5995	0.307	0.337	0.369	0.396
x1 = 0.6464	0.3	0.323	0.355	0.38
x1 = 0.698	0.282	0.304	0.332	0.353
x1 = 0.7453	0.261	0.283	0.303	0.316
x1 = 0.7969	0.234	0.243	0.26	0.278
x1 = 0.8536	0.19	0.184	0.202	0.213
x1 = 0.903	0.139	0.14	0.144	0.145
x1 = 0.95	0.0801	0.0772	0.0719	0.0473

CCOC(=O)CC(=O)OCC [diethyl 1,3-propanedioate] + CCO
excess molar enthalpy [kcal/mol]
Settings	288.2 K	298.2 K	313.2 K	328.2 K
x1 = 0.0501	0.0949	0.101	0.114	0.119
x1 = 0.1004	0.168	0.185	0.205	0.222
x1 = 0.1491	0.233	0.247	0.279	0.304
x1 = 0.1995	0.282	0.301	0.337	0.366
x1 = 0.2507	0.318	0.346	0.387	0.42
x1 = 0.2985	0.348	0.379	0.425	0.46
x1 = 0.3517	0.374	0.407	0.454	0.491
x1 = 0.399	0.39	0.425	0.473	0.51
x1 = 0.4509	0.401	0.435	0.486	0.522
x1 = 0.4985	0.406	0.442	0.489	0.527
x1 = 0.5503	0.404	0.437	0.485	0.517
x1 = 0.6013	0.395	0.428	0.469	0.499
x1 = 0.6504	0.38	0.41	0.448	0.477
x1 = 0.6967	0.359	0.386	0.422	0.442
x1 = 0.7465	0.328	0.352	0.38	0.396
x1 = 0.8002	0.284	0.302	0.322	0.333
x1 = 0.8497	0.232	0.242	0.259	0.269
x1 = 0.9027	0.164	0.172	0.179	0.186
x1 = 0.9498	0.0896	0.0946	0.105	0.101
